Values quoted from earlier work as cited in patent US20230346989A1, “FLUOROCARBON NANOEMULSIONS AND USES THEREOF IN IMAGING” (The Regents of the University of California, priority 2020, published 2023).

What was measured:
tumors = details: depending on the model; cited from earlier work
[1] = in vivo; cited from earlier work

SMILES | suppression of tumor growth (tumors) | organ-retention half-life [1]
C[C@H](NC(=O)c1c(N)nn2cccnc12)c1cc2cccc(C#Cc3cnn(C)c3)c2c(=O)n1-c1ccccc1 [IPI549] | 50-100% | –
FC(F)(F)C(F)(F)C(F)(F)C(F)(F)C(F)(F)C(F)(F)C(F)(F)C(F)(F)Br [PFOB, perfluorooctyl bromide] | – | 122 h
